According to patent publication US10077289B2, “Cyclosporins modified on the MeBmt sidechain by heterocyclic rings” (priority 2015, dated 2018):
≈ marks a conversion by molar mass, not a printed value. Where two headings read alike, the source gives them in different places.

How the values were obtained:
[1] = target: calcineurin/cyclophilin A (Homo sapiens (Human), UniProt P62937+P63098+Q08209); experiment: Calcineurin Phosphatase (CaN) Assay (+CypA); format: biochemical; details: in the presence of Cyp A, 1:1 complex with inhibitor; read-out: Calcineurin Phosphatase (CaN) Assay (+CypA) IC50
[2] = Water Solubility Assay (measured in pH 7.8 buffer); format: physicochemical; details: 25 °C, kinetic from dmso stock
[3] = target: Human recombinant cyclophilin A (Cyp A) (Homo sapiens (Human), UniProt P62937); experiment: Protease-free PPIase assay

IC50 [1] [nM]	solubility at 18 h ([2]; pH 7.8, aqueous buffer) [µM]	Ki [3] [nM]	SMILES	solubility at 18 h ([2]; 35 mM HEPES buffer pH 7.8, aqueous buffer, 35 mM HEPES pH 7.8, 1% DMSO, 18 h, read-out: Water Solubility Assay, concentration at which the compound remains in solution) [µM]	Ki ([3]; read-out: Protease-free PPIase Assay Ki, human recombinant Cyp A, 10 °C) [nM]
4750	> 100	5.1	CC[C@H]1NC(=O)[C@@H]([C@H](O)[C@H](C)Cc2nccn2CCCO)N(C)C(=O)[C@@H](C(C)C)N(C)C(=O)[C@@H](CC(C)C)N(C)C(=O)[C@@H](CC(C)C)N(C)C(=O)[C@H](C)NC(=O)[C@@H](C)NC(=O)[C@@H](CC(C)C)N(C)C(=O)[C@@H](C(C)C)NC(=O)[C@H](CC(C)C)N(C)C(=O)[C@@H](C)N(C)C1=O [Compound 6, [(2S,3R,4R)-3-Hydroxy-5-(1-(3-hydroxypropyl)-1H-imidazol-2-yl)-4-methyl-2-(methylamino)pentanoic acid]^1 [(R)-methyl-Sar]^3 cyclosporin A]	–	–
3150	50 to 75 (≈ 63.4 to 95.1 µg/mL)	14	CC[C@H]1NC(=O)[C@@H]([C@H](O)[C@H](C)CCCc2ccncc2)N(C)C(=O)[C@@H](C(C)C)N(C)C(=O)[C@@H](CC(C)C)N(C)C(=O)[C@@H](CC(C)C)N(C)C(=O)[C@H](C)NC(=O)[C@@H](C)NC(=O)[C@@H](CC(C)C)N(C)C(=O)[C@@H](C(C)C)NC(=O)[C@H](CC(C)C)N(C)C(=O)CN(C)C1=O [Compound 30, [(2S,3R,4R)-3-Hydroxy-4-methyl-2-(methylamino)-7-(pyridin-4-yl)-heptanoic acid]^1 cyclosporin A]	–	–
> 10000	> 100	12.2	CC[C@H]1NC(=O)[C@@H]([C@H](O)[C@H](C)CCCc2nccn2C)N(C)C(=O)[C@@H](C(C)C)N(C)C(=O)[C@@H](CC(C)C)N(C)C(=O)[C@@H](CC(C)C)N(C)C(=O)[C@H](C)NC(=O)[C@@H](C)NC(=O)[C@@H](CC(C)C)N(C)C(=O)[C@@H](C(C)C)NC(=O)[C@H](CC(C)C)N(C)C(=O)[C@@H](C)N(C)C1=O [Compound 26, [(2S,3R,4R)-3-Hydroxy-7-(1-methyl-1H-imidazol-2-yl)-4-methyl-2-(methylamino)heptanoic acid]^1 [(R)-methyl-Sar]^3 cyclosporin A]	–	–
3950	50 to 75 (≈ 63.4 to 95.1 µg/mL)	9.5	CC[C@H]1NC(=O)[C@@H]([C@H](O)[C@H](C)CCCc2cccnc2)N(C)C(=O)[C@@H](C(C)C)N(C)C(=O)[C@@H](CC(C)C)N(C)C(=O)[C@@H](CC(C)C)N(C)C(=O)[C@H](C)NC(=O)[C@@H](C)NC(=O)[C@@H](CC(C)C)N(C)C(=O)[C@@H](C(C)C)NC(=O)[C@H](CC(C)C)N(C)C(=O)CN(C)C1=O [Compound 31, [(2S,3R,4R)-3-Hydroxy-4-methyl-2-(methylamino)-7-(pyridin-3-yl)-heptanoic acid]^1 cyclosporin A]	–	–
5640	> 100	5.6	CC[C@H]1NC(=O)[C@@H]([C@H](O)[C@H](C)CCOCc2ccncc2)N(C)C(=O)[C@@H](C(C)C)N(C)C(=O)[C@@H](CC(C)C)N(C)C(=O)[C@@H](CC(C)C)N(C)C(=O)[C@H](C)NC(=O)[C@@H](C)NC(=O)[C@@H](CC(C)C)N(C)C(=O)[C@@H](C(C)C)NC(=O)[C@H](CC(C)C)N(C)C(=O)[C@@H](C)N(C)C1=O [Compound 37, [(2S,3R,4R)-3-Hydroxy-4-methyl-2-(methylamino)-6-(pyridin-4-ylmethoxy)-hexanoic acid]^1 cyclosporin A]	–	–
2500	50 to 75 (≈ 64.1 to 96.1 µg/mL)	5.6	CC[C@H]1NC(=O)[C@@H]([C@H](O)[C@H](C)CCCc2cccnc2)N(C)C(=O)[C@@H](C(C)C)N(C)C(=O)[C@@H](CC(C)C)N(C)C(=O)[C@@H](CC(C)C)N(C)C(=O)[C@H](C)NC(=O)[C@@H](C)NC(=O)[C@@H](CC(C)C)N(C)C(=O)[C@@H](C(C)C)NC(=O)[C@H](CC(C)C)N(C)C(=O)[C@@H](C)N(C)C1=O [Compound 11, [(2S,3R,4S)-3-Hydroxy-4-methyl-2-(methylamino)-7-(pyridin-3-yl)-heptanoic acid]^1 [(R)-methyl-Sar]^3 cyclosporin A]	–	–
> 10000	> 100	5.7	CC[C@H]1NC(=O)[C@@H]([C@H](O)[C@H](C)CCCc2cn(C)cn2)N(C)C(=O)[C@@H](C(C)C)N(C)C(=O)[C@@H](CC(C)C)N(C)C(=O)[C@@H](CC(C)C)N(C)C(=O)[C@H](C)NC(=O)[C@@H](C)NC(=O)[C@@H](CC(C)C)N(C)C(=O)[C@@H](C(C)C)NC(=O)[C@H](CC(C)C)N(C)C(=O)[C@@H](C)N(C)C1=O [Compound 20, [(2S,3R,4R)-3-Hydroxy-7-(1-methyl-1H-imidazol-4-yl)-4-methyl-2-(methylamino)heptanoic acid]^1 [(R)-methyl-Sar]^3 cyclosporin A]	–	–
1110	> 100	6.8	CC[C@H]1NC(=O)[C@@H]([C@H](O)[C@H](C)CCCc2cnn(C)c2)N(C)C(=O)[C@@H](C(C)C)N(C)C(=O)[C@@H](CC(C)C)N(C)C(=O)[C@@H](CC(C)C)N(C)C(=O)[C@H](C)NC(=O)[C@@H](C)NC(=O)[C@@H](CC(C)C)N(C)C(=O)[C@@H](C(C)C)NC(=O)[C@H](CC(C)C)N(C)C(=O)[C@@H](C)N(C)C1=O [Compound 27, [(2S,3R,4R)-3-Hydroxy-4-methyl-2-(methylamino)-7-(1-methylpyrazol-4-yl)-heptanoic acid]^1 [(R)-methyl-Sar]^3 cyclosporin A]	–	–
2390	75 to 100 (≈ 98.4 to 131 µg/mL)	3.1	CC[C@H]1NC(=O)[C@@H]([C@H](O)[C@H](C)CCCc2ccncc2)N(C)C(=O)[C@@H](C(C)C)N(C)C(=O)[C@@H](CC(C)C)N(C)C(=O)[C@@H](CC(C)C)N(C)C(=O)[C@H](C)NC(=O)[C@@H](C)NC(=O)[C@@H](CC(C)C)N(C)C(=O)[C@@H](C(C)C)NC(=O)[C@H](CC(C)C)N(C)C(=O)[C@@H](COC)N(C)C1=O [Compound 33]	–	–
9250	25 to 50 (≈ 32.4 to 64.8 µg/mL)	3.9	CC[C@H]1NC(=O)[C@@H]([C@H](O)[C@H](C)CCCc2ccnc(C)c2)N(C)C(=O)[C@@H](C(C)C)N(C)C(=O)[C@@H](CC(C)C)N(C)C(=O)[C@@H](CC(C)C)N(C)C(=O)[C@H](C)NC(=O)[C@@H](C)NC(=O)[C@@H](CC(C)C)N(C)C(=O)[C@@H](C(C)C)NC(=O)[C@H](CC(C)C)N(C)C(=O)[C@@H](C)N(C)C1=O [Compound 17, [(2S,3R,4R)-3-Hydroxy-4-methyl-2-(methylamino)-7-(2-methyl-pyridin-4-yl)-heptanoic acid]^1 [(R)-methyl-Sar]^3 cyclosporin A]	–	–
1450	25 to 50 (≈ 32.5 to 65.1 µg/mL)	3.2	CC[C@H]1NC(=O)[C@@H]([C@H](O)[C@H](C)CCCc2csc(C)n2)N(C)C(=O)[C@@H](C(C)C)N(C)C(=O)[C@@H](CC(C)C)N(C)C(=O)[C@@H](CC(C)C)N(C)C(=O)[C@H](C)NC(=O)[C@@H](C)NC(=O)[C@@H](CC(C)C)N(C)C(=O)[C@@H](C(C)C)NC(=O)[C@H](CC(C)C)N(C)C(=O)[C@@H](C)N(C)C1=O [Compound 13, [(2S,3R,4R)-3-Hydroxy-4-methyl-2-(methylamino)-7-(2-methyl-thiazol-4-yl)-heptanoic acid]^1 [(R)-methyl-Sar]^3 cyclosporin A]	–	–

SMILES	IC50 [1] [nM]	solubility at 18 h ([2]; pH 7.8, aqueous buffer) [µM]	Ki [3] [nM]	solubility at 18 h ([2]; 35 mM HEPES buffer pH 7.8, aqueous buffer, 35 mM HEPES pH 7.8, 1% DMSO, 18 h, read-out: Water Solubility Assay, concentration at which the compound remains in solution) [µM]	Ki ([3]; read-out: Protease-free PPIase Assay Ki, human recombinant Cyp A, 10 °C) [nM]
CC[C@H]1NC(=O)[C@@H]([C@H](O)[C@H](C)Cc2nccn2CCN2CCCC2)N(C)C(=O)[C@@H](C(C)C)N(C)C(=O)[C@@H](CC(C)C)N(C)C(=O)[C@@H](CC(C)C)N(C)C(=O)[C@H](C)NC(=O)[C@@H](C)NC(=O)[C@@H](CC(C)C)N(C)C(=O)[C@@H](C(C)C)NC(=O)[C@H](CC(C)C)N(C)C(=O)[C@@H](C)N(C)C1=O [Compound 3, [(2S,3R,4R)-3-Hydroxy-4-methyl-2-(methylamino)-5-(1-(N-pyrrolidinyl-ethyl)-1H-imidazol-2-yl)pentanoic acid]^1 [(R)-methyl-Sar]^3 cyclosporin A]	> 10000	–	–	> 100	8.6
